Measurements taken from ChEMBL document CHEMBL3886459, “Benzylamine derivatives as inhibitors of plasma kallikrein” (2016).

How the values were obtained:
[1] = target: T1, Coagulation factor XII (Homo sapiens, UniProt P00748); experiment: Enzyme Assay: Human serine protease enzymes plasmin, thrombin, trypsin, Factor Xa and Factor XIIa were assayed for enzymatic activity using an appropriate fluorogenic substrate. Protease activity was measured by monitoring the accumulation of liberated fluorescence from the substrate over 5 minutes. The linear rate of fluorescence increase per minute was expressed as percentage (%) activity. The …
T1 sequence (P00748 whole entry): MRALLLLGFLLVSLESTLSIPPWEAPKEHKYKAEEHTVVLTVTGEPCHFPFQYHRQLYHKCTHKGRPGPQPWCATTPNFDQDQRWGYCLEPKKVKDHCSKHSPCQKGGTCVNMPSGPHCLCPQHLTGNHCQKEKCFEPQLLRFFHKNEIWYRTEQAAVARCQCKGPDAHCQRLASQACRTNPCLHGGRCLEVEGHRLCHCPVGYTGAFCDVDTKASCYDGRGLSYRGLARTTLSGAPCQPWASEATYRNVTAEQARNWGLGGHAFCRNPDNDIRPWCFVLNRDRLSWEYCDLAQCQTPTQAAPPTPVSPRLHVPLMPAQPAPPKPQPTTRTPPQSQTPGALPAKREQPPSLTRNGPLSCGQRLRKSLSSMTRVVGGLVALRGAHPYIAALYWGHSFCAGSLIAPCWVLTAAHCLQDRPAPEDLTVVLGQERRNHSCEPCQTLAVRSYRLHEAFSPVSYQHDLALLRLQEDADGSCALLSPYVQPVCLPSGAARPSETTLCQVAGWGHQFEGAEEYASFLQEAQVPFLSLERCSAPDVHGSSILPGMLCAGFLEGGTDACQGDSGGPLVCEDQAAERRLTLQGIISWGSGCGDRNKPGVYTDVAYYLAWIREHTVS
Description: Enzyme Assay: Human serine protease enzymes plasmin, thrombin, trypsin, Factor Xa and Factor XIIa were assayed for enzymatic activity using an appropriate fluorogenic substrate. Protease activity was measured by monitoring the accumulation of liberated fluorescence from the substrate over 5 minutes. The linear rate of fluorescence increase per minute was expressed as percentage (%) activity. The Km for the cleavage of each substrate was determined by standard transformation of the Michaelis-Menten equation.

[2] = target: Plasma kallikrein (Homo sapiens, UniProt P03952); experiment: (§1) In Vitro Inhibition Assay: Plasma kallikrein inhibitory activity in vitro was determined using standard published methods (see e.g. Johansen et al., Int. J. Tiss. Reac. 1986, 8, 185; Shori et al., Biochem. Pharmacol., 1992, 43, 1209; Stiirzebecher et al., Biol. Chem. Hoppe-Seyler, 1992, 373, 1025). Human plasma kallikrein (Protogen) was incubated at 37° C. with the fluorogenic substrate H-DPro-Phe-Arg-AFC and various concentrations of the test compound. Residual enzyme activity (initial rate of reaction) was determined by measuring the change in […] at 410 nm and the IC50 value for the test compound was determined.; assay type: cell-free
Plasma kallikrein, sequence (P03952 20-390 limits assumed): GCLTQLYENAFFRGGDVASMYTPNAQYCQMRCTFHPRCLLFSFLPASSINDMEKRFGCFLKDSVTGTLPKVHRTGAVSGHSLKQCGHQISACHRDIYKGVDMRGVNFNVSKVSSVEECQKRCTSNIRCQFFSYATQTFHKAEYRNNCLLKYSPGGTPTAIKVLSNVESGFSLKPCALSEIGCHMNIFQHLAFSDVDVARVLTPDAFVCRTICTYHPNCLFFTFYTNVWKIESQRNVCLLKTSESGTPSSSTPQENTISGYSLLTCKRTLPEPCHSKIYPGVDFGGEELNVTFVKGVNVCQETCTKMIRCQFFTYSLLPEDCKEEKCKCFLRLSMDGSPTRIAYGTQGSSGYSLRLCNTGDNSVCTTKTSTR
Plasma kallikrein, sequence (P03952 391-638 limits assumed): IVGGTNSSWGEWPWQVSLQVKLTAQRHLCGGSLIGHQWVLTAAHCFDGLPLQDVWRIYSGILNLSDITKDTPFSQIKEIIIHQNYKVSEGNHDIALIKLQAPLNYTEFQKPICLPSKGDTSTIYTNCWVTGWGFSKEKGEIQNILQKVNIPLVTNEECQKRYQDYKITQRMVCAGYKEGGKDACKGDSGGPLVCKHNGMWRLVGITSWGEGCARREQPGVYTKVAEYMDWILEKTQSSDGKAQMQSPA

[3] = target: Kallikrein-1 (Homo sapiens, UniProt P06870); experiment: as §1, with “KLK1” for “Plasma kallikrein”, “Stürzebecher” for “Stiirzebecher”, “KLK1 (Callbiochem)” for “plasma kallikrein (Protogen)”, “H-DVal-Leu-Arg-AFC” for “H-DPro-Phe-Arg-AFC”
Kallikrein-1, sequence (P06870 whole entry): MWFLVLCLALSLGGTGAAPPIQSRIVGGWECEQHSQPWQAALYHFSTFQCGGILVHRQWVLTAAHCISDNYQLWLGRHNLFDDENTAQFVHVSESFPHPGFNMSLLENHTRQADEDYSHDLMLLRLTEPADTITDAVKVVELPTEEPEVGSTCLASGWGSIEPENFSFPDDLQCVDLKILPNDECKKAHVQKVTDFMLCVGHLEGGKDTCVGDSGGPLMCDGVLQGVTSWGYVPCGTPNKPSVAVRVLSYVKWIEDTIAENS

IC50 [1] [nM] | IC50 [2] [nM] | IC50 [3] [nM] | Structure (SMILES)
> 10000 | 46 | > 10000 | CCOc1ccc(C[C@@H](NC(=O)c2ccc(OC)cc2)C(=O)N[C@@H](Cc2ccccc2)C(=O)NCc2ccc(CN)cc2)cc1
 | 1210 | > 10000 | NCc1ccc(CNC(=O)[C@H](Cc2ccccc2)NC(=O)[C@@H](Cc2ccc(OCc3ccccc3)cc2)NC(=O)c2ccccc2)cc1
> 10000 | 32 | > 10000 | CCOc1ccc(C[C@@H](NC(=O)c2ccc(C)cc2)C(=O)N[C@@H](Cc2ccccc2)C(=O)NCc2ccc(CN)cc2)cc1
 | 40 | 9500 | CCCOc1ccc(C[C@@H](NC(=O)c2ccccc2)C(=O)N[C@@H](Cc2ccccc2)C(=O)NCc2ccc(CN)cc2)cc1
 | 28 | > 10000 | CCOc1ccc(C[C@@H](NC(=O)c2ccccc2)C(=O)N[C@@H](Cc2c[nH]c3ccccc23)C(=O)NCc2ccc(CN)cc2)cc1
 | 740 | > 1000 | NCc1ccc(CNC(=O)[C@H](Cc2ccccc2)NC(=O)[C@H](N)CC2CCCCC2)cc1
